The values below come from article PMC4198181, “Gold(I) Complexes of 9-Deazahypoxanthine as Selective Antitumor and Anti-Inflammatory Agents” (PLoS ONE, 2014).

The subject of one data set is IL-1β mRNA. Briefly: IL-1β gene expression by RT-qPCR in LPS-stimulated THP-1 macrophages. To be noted: 300 nM, 2 h after LPS, normalised to β-actin. The data set is classed as cell-based, human. The method, then: (§1) For the determination of biological activity, we used the human monocytic leukaemia cell line THP-1 (ECACC, Salisbury, UK). The cells were cultivated at 37°C in the RPMI 1640 medium supplemented with 2 mM L-glutamine, 10% FBS, 100 U/mL of penicillin and 100 µg/mL of streptomycin in a humidified atmosphere containing 5% CO2. Stabilized cells (3rd–15th passage) were split into microtitration plates to get a concentration of 500 000 cells/mL and the differentiation to macrophages was induced by phorbol myristate acetate (PMA) dissolved in dimethyl sulfoxide (DMSO) at the final concentration of 50 ng/ml, and the cells were incubated for 24 h. In comparison with monocytes, differentiated macrophages tend to adhere to the bottoms of the cultivation plates. For next 24 h the cells were incubated with a fresh complete RPMI medium, i.e. containing antibiotics and FBS, without PMA. The medium was then aspirated, and the cells were washed with PBS and cultivated for next 24 hours in serum-free RPMI 1640 medium. These prepared macrophages were used for the detection of inflammatory response.
(§2) In the order to evaluate the expression of TNF-α, IL-1β, and β-actin mRNA, total RNA was isolated directly from the LPS-stimulated THP-1 cells. THP-1 macrophages were pretreated with compounds 2, 5, and Auranofin at the concentration of 300 nM or the vehicle (0.1% DMSO) only. After 1 h of the incubation, the inflammatory response was induced by LPS [except for the control cells (CTRL)]. After 2 h of the incubation with LPS, the medium was aspirated and the total RNA was isolated directly from the cells in cultivation plates using a RealTime Ready Cell Lysis Kit (Roche), according to the manufacturer's instructions.
(§3) The gene expression was quantified by two-step reverse-transcription quantitative (real-time) PCR (RT-qPCR). The reverse transcription step was performed by Transcriptor Universal cDNA Master using cell lysate as a template. […] The results were normalized to the amount of ROX reference dye, and the change in gene expression was determined by the 2^−ΔΔCT method. […]

The test system of data set [1] is A549 lung carcinoma cells. Briefly: MTT in vitro cytotoxicity, A549. Format: cell-based, human. To be noted: 24 h treatment, read-out: IC50±S.E., A549. The method, then: (§4) In vitro cytotoxic activity was determined by the MTT assay in human breast adenocarcinoma (MCF7; ECACC no. 86012803), human osteosarcoma (HOS; ECACC no. 87070202), lung carcinoma (A549; ECACC no. 86012804), malignant melanoma (G361; ECACC no. 88030401), cervix epitheloid carcinoma (HeLa; ECACC no. 93021013), ovarian carcinoma (A2780; ECACC no. 93112519), cisplatin-resistant ovarian carcinoma (A2780R; […] ECACC no 105092802) cancer cell lines, purchased from European Collection of Cell Cultures (ECACC). […] The primary culture of human hepatocytes (HEP220, batch number HEP220819) was obtained from Biopredic International (France). The culture medium was Williams and HAM's F-12 (1∶1) supplemented with penicillin, streptomycin, ascorbic acid, linoleic acid, holo-transferin, ethanolamine, glucagon, insulin, dexamethasone, pyruvate, glucose, glutamine, amphotericin. The medium was enriched for plating with 2% foetal calf serum (v/v). The medium was exchanged for a serum-free medium the day after and the culture was stabilized for additional 24 h. Thereafter, the cells were ready for treatments. […] The MTT assay was performed spectrophotometrically at 540 nm (TECAN, Schoeller Instruments LLC). The cytotoxicity data were expressed as the percentage of viability, where 100% represented the treatments with vehicle (0.1% DMF or 0.1% DMSO). The cytotoxicity data from the cancer cell lines were acquired from three independent experiments (conducted in triplicate) using cells from different passages. The IC50 values were calculated from viability curves. The results are presented as arithmetic means±standard error of the mean (S.E.).

In data set [2] the test system is MCF7 breast carcinoma cells. As to the kind of experiment: MTT in vitro cytotoxicity, MCF7. Format: cell-based, human. Conditions: 24 h treatment, read-out: IC50±S.E., MCF7. The method, then: as §4
Data set [3] concerns A2780 ovarian carcinoma cells. Briefly: MTT in vitro cytotoxicity, A2780. Format: cell-based, human. Conditions: 24 h treatment, read-out: IC50±S.E., A2780. The method, then:
as §4

For data set [4], the system named is IκB-α degradation (NF-κB signalling pathway). Briefly: LPS-induced IκB-α degradation (Western blot) in THP-1 macrophages. Format: cell-based, human. To be noted: 300 nM, 30 min after LPS. The method, then: Macrophage-like THP-1 cells were pretreated with the tested compounds and stimulated by LPS as was describe above. Thirty minutes after the addition of LPS, the medium was aspirated and cells were washed by cold phosphate buffer solution (PBS). Subsequently, the cells were collected using the lysis buffer [50 mM Tris-HCl pH 7.5, 1 mM EGTA, 1 mM EDTA, 1 mM sodium orthovanadate, 50 mM sodium fluoride, 5 mM sodium pyrophosphate, 270 mM sucrose, 0.1% (v/v) Triton X-100, and cOmplete Protease Inhibitor Cocktail (Roche, Germany)] and scraper. The lysis of cells was facilitated by a short (≈30 s) incubation in the ultrasonic water bath. The protein concentration was determined according to Bradford's method. For protein separation, 30 µg of protein was loaded onto the 12% polyacrylamide gel. […] The membranes were incubated with the primary anti-IκB-α antibody at the concentration ratio of 1∶500, or with the primary anti-β-actin at the concentration ration of 1∶5 000 at 4°C for 16 h. After washing, the secondary anti-mouse IgG antibody diluted 1∶2 000 was applied on the membranes and incubated at laboratory temperature (22°C) for 1 h. The amount of the bound secondary antibody was detected colorimetrically by an Opti-4CN Kit according to the manufacturer's manual.
Background: Immunoblotting shows a protein as a band on a membrane.

In another data set the test system is TNF-α mRNA. As to the kind of experiment: TNF-α gene expression by RT-qPCR in LPS-stimulated THP-1 macrophages. Format: cell-based, human. To be noted: 300 nM, 2 h after LPS, normalised to β-actin. The method, then:
as §1, §2, §3
A general note: Real-time PCR tracks product formation cycle by cycle.

Another data set concerns HOS osteosarcoma cells. Briefly: MTT in vitro cytotoxicity, HOS. The data set is classed as cell-based, human. To be noted: 24 h treatment, read-out: IC50±S.E., HOS. The method, then:
as §4

Data set [5] concerns primary culture of human hepatocytes (HEP220). Briefly: MTT in vitro cytotoxicity, primary human hepatocytes. Format: cell-based. Conditions: for IC50: 24 h treatment, MTT, read-out: IC50±S.E., HEP220 (healthy human hepatocytes). The method, then:
as §4

Data set [6] has as its system HeLa cervix epitheloid carcinoma cells. Briefly: MTT in vitro cytotoxicity, HeLa. Format: cell-based, human. Conditions: 24 h treatment, read-out: IC50±S.E., HeLa. The method, then: as §4

Molecules are shown by their SMILES. A value given as a limit tells only on which side of the number the result lay.

In general, IC50 refers to the point on the concentration scale where inhibition reaches its midpoint. For `CC(C)Oc1ncnc2cc[n]([Au])c12.c1ccc(P(c2ccccc2)c2ccccc2)cc1` [complex 2, [Au(L2)(PPh3)]], the “effect on IL-1β mRNA transcription” value in the data set with IL-1β mRNA is on record as “significantly reduce the transcription”. For the same compound, the IC50 in data set [1] was determined as 17.2 ± 0.7 µM; in data set [2], 0.6 ± 0.1 µM; in [3], 4 ± 0.2 µM; with HOS osteosarcoma cells, 0.9 ± 0.2 µM; in data set [5] it was 18.5 ± 1.5 µM; in data set [6] it was 16 ± 0.2 µM. In addition, the “effect on LPS-induced IκB degradation” value in data set [4] is listed as “block moderately the IκB degradation”. Further, in the data set with TNF-α mRNA, the “effect on TNF-α mRNA transcription” value is on record as “significantly reduce the transcription”. Moreover, the “times lower cytotoxicity against healthy human cells (HEP220) than cancer cell lines” value in data set [5] (complex 2: MCF7 vs. HEP220) was ~30 times.

With `[Au][n]1ccc2ncnc(OCCc3ccccc3)c21.c1ccc(P(c2ccccc2)c2ccccc2)cc1` [complex 5], the “effect on IL-1β mRNA transcription” value with IL-1β mRNA was “significantly reduce the transcription”. The IC50 in data set [1] was 18.3 ± 0.5 µM; in data set [2], > 50 µM; in [3], 4.4 ± 0.3 µM; with HOS osteosarcoma cells, 2.9 ± 0.1 µM; in data set [5] it was 19 ± 1.8 µM; in data set [6], 22.8 ± 0.5 µM. Besides, the “effect on LPS-induced IκB degradation” value in data set [4] is recorded as “block moderately the IκB degradation”. For the same compound, in the data set on TNF-α mRNA, the “effect on TNF-α mRNA transcription” value is reported as “significantly reduce the transcription”.
